Experimental data reported in patent publication US11414378B2, “Anti-fungals compounds targeting the synthesis of fungal sphingolipids” (THE RESEARCH FOUNDATION FOR THE STATE UNIVERSITY OF NEW YORK, priority 2017, dated 2022).
≈ marks a conversion by molar mass, not a printed value.

Legend:
HepG2 = HepG2 toxicity; type: cell-based; conditions: Tables 1-3
A549 = A549 toxicity; type: cell-based
C. neoformans [1] = assay: In vitro susceptibility testing (MIC / IC80); type: cell-based, Cryptococcus neoformans; conditions: for IC80: Cryptococcus neoformans, Tables 1-3; for MIC: Example 2 table
Protocol: Minimal inhibitory concentration (MIC) was determined following the methods of the Clinical Laboratory Standards Institutes (CLSI) with modifications. MIC studies used either RPMI or YNB medium (pH 7.0, 0.2% glucose) buffered with HEPES. […] The compound was serially diluted from 32 to 0.03 μg/ml or 19 to 0.02 μg/ml respectively in a 96 well plate with the respective medium. The yeast inoculum was prepared as described in the CLSI protocol M27-A3 guidelines. Plates were incubated at 37° C. and in the presence of 5% CO2 for 24-96 hours. Against all fungal isolates used in the initial susceptibility screen, the MICs were determined as the lowest concentration of the drug that inhibited 50% of growth compared to the control. MIC80 and MIC100, whose drug concentrations inhibited 80% and 100% growth compared to the control respectively, were also determined. For antibacterial activity, E. coli DH5a and P. aeruginosa PA14 were grown overnight in Luria Bertani (LB) broth at 30° C. The cells were washed with PBS and counted. Then, 300 μL from 2×10^8 cells/mL was spreaded onto LB agar plate using a hockey stick glass spreader. The plate was dried, and wells were punched out using a cut tip. Fifty microliters of different drug concentration was added to the well. The plate was then incubated at 30° C. for 24 hours.

C. neoformans [2] = assay: In vitro killing assay (killing curve, Kapp, 48H killing); type: cell-based, Cryptococcus neoformans; conditions: for Kapp*: Kapp = K0 − Ki (C − Ci), killing curve versus MIC; for Kill characteristics: FIG. 1A / FIG. 1B
Protocol: From an overnight culture, C. neoformans cells were washed in PBS, resuspended in YNB buffered with HEPES at pH 7.4. Cells were counted and 2×10^4 cells were incubated with either 1, 2 or 4 μg/ml of compound in a final volume of 10 ml. Tubes were then incubated at 37° C. in the presence of 5% CO2 on a rotary shaker at 200 rpm. At the illustrated time points, aliquots were taken and diluted and 100 μL was plated onto yeast peptone dextrose (YPD) plates. YPD plates were incubated in a 30° C. incubator and, after 72 hours, colony forming units (CFU) were counted and recorded.

C. neoformans [3] = assay: In vitro susceptibility (MIC80) assay; type: cell-based; conditions: Cryptococcus neoformans; lowest concentration that inhibited 80% of growth; YNB pH 7.0, HEPES, 37° C., 5% CO2
Protocol: MICs was determined following the methods of the Clinical and Laboratory Standards Institutes (CLSI) with modifications. Yeast Nitrogen Base (YNB) medium (pH 7.0, 0.2% glucose) buffered with HEPES was used for MIC studies. […] The compound was serially diluted from 16 to 0.03 μg/ml, in a 96-well plate. The inoculum was prepared as described in the CLSI protocol M27A3 guidelines. The plates were incubated at 37° C. with 5% CO2 for 24 to 72 h and the optical density was measure at 450 nm. The MICs was determined as the lowest concentration of the compound that inhibited 80% of growth compared to the control.

C. neoformans cells = assay: In vitro killing activity (K100) assay; type: cell-based, Cryptococcus neoformans; conditions: Cryptococcus neoformans; minimum concentration that kills 100% of C. neoformans cells in 48 h
Protocol: C. neoformans cells from a culture grown overnight were washed in PBS and resuspended in YNB buffered with HEPES at pH 7.4. The cells were counted, and 2×10^4 cells were incubated with different concentration of compounds in a final volume of 10 ml with a final concentration of 0.5% DMSO. The tubes were then incubated at 37° C. with 5% CO2 on a rotary shaker at 200 rpm. Aliquots were taken at time points and diluted, and […] were plated onto Yeast Extract-Peptone-Dextrose (YPD) plates. YPD plates were incubated in a 30° C. incubator and after 48 h, the numbers of CFU were counted and recorded.

MIC80 (C. neoformans [3]) | SMILES | HepG2 (HepG2) | A549 (A549; Tables 1-3) | IC80 (C. neoformans [1]) | MFC (C. neoformans cells) | further results
 | Cc1ccc(O)c(/C=N/NC(=O)c2cc(Br)ccc2Br)c1 | 32 µg/mL | 32 µg/mL | 1 µg/mL (≈ 2.43 µM) |  | 
 | O=C(N/N=C/c1ccc(Br)cc1O)c1cc(Br)cc(Br)c1O [drawing 79] | 32 µg/mL | 32 µg/mL | 0.06 µg/mL (≈ 0.122 µM) |  | Killing assay 48H (μg/mL) (C. neoformans [2]): Fungistatic
 | O=C(N/N=C/c1ccc(Br)cc1O)c1ccc(Br)cc1Br | >64 µg/mL | >32 µg/mL | 0.06 µg/mL (≈ 0.126 µM) |  | 
 | O=C(N/N=C/c1cc(Br)cc(Br)c1O)c1ccc(Br)cc1 [Compound 13] |  |  |  |  | Kapp* (C. neoformans [2]): −0.428; A549 (A549; Example 2 table): >128; MIC (C. neoformans [1]): 0.06 µg/mL (≈ 0.126 µM)
 | O=C(N/N=C/c1c(O)ccc2ccccc12)c1ccc(Br)cc1Br | >32 µg/mL | 16 µg/mL | 0.12 µg/mL (≈ 0.268 µM) |  | 
 | O=C(N/N=C/c1cc(Br)cc(Br)c1O)c1cnc2ccccc2c1 [drawing 62] | 32 µg/mL | 32 µg/mL | 0.25 µg/mL (≈ 0.557 µM) |  | Killing assay 48H (μg/mL) (C. neoformans [2]): Fungistatic
 | O=C(N/N=C/c1ccc(Br)cc1O)c1cccc(F)c1F | 16 µg/mL | 16 µg/mL | 0.5 µg/mL (≈ 1.41 µM) |  | 
 | O=C(N/N=C/c1cc(Cl)ccc1O)c1ccc(Br)cc1Br | 64 µg/mL | 64 µg/mL | 0.25 µg/mL (≈ 0.578 µM) |  | 
 | O=C(N/N=C/c1cc(Br)ccc1O)c1cc(Br)cc(Br)c1O [Compound 17] |  |  |  |  | Kapp* (C. neoformans [2]): 0.077; A549 (A549; Example 2 table): 16; MIC (C. neoformans [1]): 0.5 µg/mL (≈ 1.01 µM)
 | O=C(N/N=C/c1cc(Cl)cc(Cl)c1O)c1cc(Br)ccc1Br | 32 µg/mL | 32 µg/mL | 0.5 µg/mL (≈ 1.07 µM) |  | 
 | O=C(N/N=C/c1ccc(Br)cc1O)c1cc(Br)ccc1Br | 16 µg/mL | 32 µg/mL | 0.12 µg/mL (≈ 0.252 µM) |  | 
 | O=C(N/N=C/c1cc(Cl)ccc1O)c1cccc(F)c1F | 32 µg/mL | 72 µg/mL | 1 µg/mL (≈ 3.22 µM) |  | 
 | O=C(N/N=C/c1c(O)ccc2ccccc12)c1cc(Br)ccc1Br | 16 µg/mL | 32 µg/mL | 0.25 µg/mL (≈ 0.558 µM) |  | 
 | Cc1ccc(O)c(/C=N/NC(=O)c2ccc(Br)cc2Br)c1 | 16 µg/mL | 32 µg/mL | 1 µg/mL (≈ 2.43 µM) |  | 
 | O=C(N/N=C/c1cc(Br)ccc1O)c1ccc(Br)cc1Br | 59 µg/mL | >32 µg/mL | 0.12 µg/mL (≈ 0.252 µM) |  | 
 | O=C(N/N=C/c1cc(Br)ccc1O)c1cccc(Br)c1 [Compound 2] |  |  |  |  | Kill characteristics (C. neoformans [2]): killed C. neoformans in a time dependent manner; Kapp* (C. neoformans [2]): −0.142; A549 (A549; Example 2 table): 64; MIC (C. neoformans [1]): 0.25 µg/mL (≈ 0.628 µM)
 | Cc1ccc(O)c(/C=N/NC(=O)c2cc(Br)cc(Br)c2O)c1 [drawing 66] | 8 µg/mL | 4 µg/mL | 0.25 µg/mL (≈ 0.584 µM) |  | 
0.06 µg/mL (≈ 0.129 µM) | O=C(NN=Cc1ccc(Br)cc1O)c1cc(Br)c(Br)o1 [Compound H8, 4,5-Dibromo-N′-(4-bromo-2-hydroxybenzylidene)furan-2-carbohydrazide] |  |  |  | > 0.25 µg/mL | 
0.12 µg/mL (≈ 0.274 µM) | O=C(N/N=C/c1c(O)ccc2ccccc12)c1cc(Br)c(Br)o1 [Compound H10, 4,5-Dibromo-N′-(2-hydroxynaphthalen-1-yl)methylenefuran-2-carbohydrazide] |  |  |  | > 0.5 µg/mL | 
0.25 µg/mL (≈ 0.62 µM) | O=C(N/N=C/c1cc(OC(F)(F)F)ccc1O)c1ccc(Br)cc1 [Compound A1, 4-Bromo-N′-(2-hydroxy-5-trifluoromethoxybenzylidene)benzohydrazide] |  |  |  | > 1 µg/mL | 

MIC80 (C. neoformans [3]) | SMILES | HepG2 (HepG2) | A549 (A549; Tables 1-3) | IC80 (C. neoformans [1]) | MFC (C. neoformans cells) | further results
0.06 µg/mL (≈ 0.124 µM) | O=C(N/N=C/c1cc(Br)cc(Br)c1O)c1ccc(Br)s1 [Compound H4, 5-Bromo-N′-(3,5-dibromo-2-hydroxybenzylidene)thiophene-2-carbohydrazide] |  |  |  | > 0.25 µg/mL | 
0.25 µg/mL (≈ 0.644 µM) | O=C(N/N=C/c1cc(Br)ccc1O)c1cc(Br)co1 [Compound H11, 4-Bromo-N′-(5-bromo-2-hydroxybenzylidene)furan-2-carbohydrazide] |  |  |  | > 1 µg/mL | 
0.5 µg/mL (≈ 1.48 µM) | O=C(N/N=C/c1ccc(Br)cc1O)c1cccc(F)c1 [Compound A28, 3-Fluoro-N′-(4-bromo-2-hydroxybenzylidene)benzohydrazide] |  |  |  | > 2 µg/mL | 
1 µg/mL (≈ 2.14 µM) | O=C(N/N=C/c1cc(Cl)cc(Cl)c1O)c1cccc(Br)c1Br [Compound A43, 2,3-Dibromo-N′-(3,5-dichloro-2-hydroxybenzylidene)benzohydrazide] |  |  |  | 1 µg/mL (≈ 2.14 µM) | 
 | O=C(N/N=C/c1ccc(Br)cc1O)c1cccc(Br)c1 | 9 µg/mL | >32 µg/mL | 0.5 µg/mL (≈ 1.26 µM) |  | 
 | Cc1ccc(O)c(/C=N/NC(=O)c2cc(Br)ccc2O)c1 | 16 µg/mL | 16 µg/mL | 0.25 µg/mL (≈ 0.716 µM) |  | 
0.12 µg/mL (≈ 0.297 µM) | O=C(N/N=C/c1cc(Br)ccc1O)c1ccc(Br)s1 [Compound H2, 5-Bromo-N′-(5-bromo-2-hydroxybenzylidene)thiophene-2-carbohydrazide] |  |  |  | > 0.5 µg/mL | 
 | O=C(N/N=C/c1cc(Cl)ccc1O)c1cc(Br)ccc1Br | 32 µg/mL | 59 µg/mL | 0.25 µg/mL (≈ 0.578 µM) |  | 
0.25 µg/mL (≈ 0.519 µM) | O=C(N/N=C/c1cc(OC(F)(F)F)ccc1O)c1ccc(Br)cc1Br [Compound A3, 2,4-Dibromo-N′-(2-hydroxy-5-trifluoromethoxybenzylidene)benzohydrazide] |  |  |  | 2 µg/mL (≈ 4.15 µM) | 
 | O=C(N/N=C/c1cc(Cl)cc(Cl)c1O)c1ccc(Br)cc1Br | 64 µg/mL | >64 µg/mL | 1 µg/mL (≈ 2.14 µM) |  | 
0.12 µg/mL (≈ 0.268 µM) | O=C(N/N=C/c1c(O)ccc2ccccc12)c1ccc(Br)c(Br)c1 [Compound A32, 3,4-Dibromo-N′-(2-hydroxy-1-naphthylidene)benzohydrazide] |  |  |  | > 1 µg/mL | 
0.06 µg/mL (≈ 0.139 µM) | O=C(N/N=C/c1cc(Cl)ccc1O)c1ccc(Br)c(Br)c1 [Compound A31, 3,4-Dibromo-N′-(5-chloro-2-hydroxybenzylidene)benzohydrazide] |  |  |  | > 0.5 µg/mL | 
0.12 µg/mL (≈ 0.248 µM) | O=C(N/N=C/c1cc(Br)cc(Br)c1O)c1ccc(C(F)(F)F)cc1F [Compound A9, 2-Fluoro-4-trifluoromethyl-N′-(3,5-dibromo-2-hydroxybenzylidene)benzohydrazide] |  |  |  | 0.5 µg/mL (≈ 1.03 µM) | 
1 µg/mL (≈ 2.1 µM) | O=C(N/N=C/c1ccc(Br)cc1O)c1cc(Br)cc(Br)c1 [Compound A39, 3,5-Dibromo-N′-(4-bromo-2-hydroxybenzylidene)benzohydrazide] |  |  |  | 1 µg/mL (≈ 2.1 µM) | 
 | Cc1ccccc1C(=O)N/N=C/c1cc(Br)ccc1O [Compound 1] |  |  |  |  | Kill characteristics (C. neoformans [2]): killed C. neoformans in a concentration dependent manner; Kapp* (C. neoformans [2]): 0.024; A549 (A549; Example 2 table): 32; MIC (C. neoformans [1]): 1 µg/mL (≈ 3 µM)
0.06 µg/mL (≈ 0.129 µM) | O=C(N/N=C/c1cc(Br)cc(Br)c1O)c1cc(Br)co1 [Compound H13, 4-bromo-N′-(3,5-dibromo-2-hydroxybenzylidene)furan-2-carbohydrazide] |  |  |  | > 0.25 µg/mL | 
 | O=C(N/N=C/c1cc(Br)ccc1O)c1cc(Br)ccc1Br | 32 µg/mL | 16 µg/mL | 0.25 µg/mL (≈ 0.524 µM) |  | 
0.5 µg/mL (≈ 1.23 µM) | O=C(N/N=C/c1cc(Br)cc(Br)c1O)C1CCOCC1 [Compound H15, N′-(3,5-dibromo-2-hydroxybenzylidene)tetrahydro-2H-pyran-4-carbohydrazide] |  |  |  | > 2 µg/mL | 
0.06 µg/mL (≈ 0.126 µM) | O=C(N/N=C/c1cc(Br)ccc1O)c1cc(Br)cc(Br)c1 [Compound A36, 3,5-Dibromo-N′-(5-bromo-2-hydroxybenzylidene)benzohydrazide] |  |  |  | > 5 µg/mL | 
 | O=C(N/N=C/c1ccc(Br)cc1O)c1ccc(Br)cc1 | 32 µg/mL | 16 µg/mL | 0.06 µg/mL (≈ 0.151 µM) |  | Killing assay 48H (μg/mL) (C. neoformans [2]): Fungistatic
